Assay results: US8541588B2, “Sulfonamide derivatives” (Pfizer Limited, priority 2009, dated 2013)

biological target: T1, Nav1.7 (or SCN9A) channel; HEK cells stably transfected with hSCN9A (Homo sapiens, UniProt Q15858); assay: Nav1.7 block, PatchXpress 7000 automated whole-cell voltage clamp, estimated IC50 (EIC50); assay type: cell-based; details: PatchXpress platform; hSCN9A HEK cells held at V1/2 of inactivation; estimated IC50
T1 construct: expressed in transfected cells
T1 sequence (Q15858 whole entry): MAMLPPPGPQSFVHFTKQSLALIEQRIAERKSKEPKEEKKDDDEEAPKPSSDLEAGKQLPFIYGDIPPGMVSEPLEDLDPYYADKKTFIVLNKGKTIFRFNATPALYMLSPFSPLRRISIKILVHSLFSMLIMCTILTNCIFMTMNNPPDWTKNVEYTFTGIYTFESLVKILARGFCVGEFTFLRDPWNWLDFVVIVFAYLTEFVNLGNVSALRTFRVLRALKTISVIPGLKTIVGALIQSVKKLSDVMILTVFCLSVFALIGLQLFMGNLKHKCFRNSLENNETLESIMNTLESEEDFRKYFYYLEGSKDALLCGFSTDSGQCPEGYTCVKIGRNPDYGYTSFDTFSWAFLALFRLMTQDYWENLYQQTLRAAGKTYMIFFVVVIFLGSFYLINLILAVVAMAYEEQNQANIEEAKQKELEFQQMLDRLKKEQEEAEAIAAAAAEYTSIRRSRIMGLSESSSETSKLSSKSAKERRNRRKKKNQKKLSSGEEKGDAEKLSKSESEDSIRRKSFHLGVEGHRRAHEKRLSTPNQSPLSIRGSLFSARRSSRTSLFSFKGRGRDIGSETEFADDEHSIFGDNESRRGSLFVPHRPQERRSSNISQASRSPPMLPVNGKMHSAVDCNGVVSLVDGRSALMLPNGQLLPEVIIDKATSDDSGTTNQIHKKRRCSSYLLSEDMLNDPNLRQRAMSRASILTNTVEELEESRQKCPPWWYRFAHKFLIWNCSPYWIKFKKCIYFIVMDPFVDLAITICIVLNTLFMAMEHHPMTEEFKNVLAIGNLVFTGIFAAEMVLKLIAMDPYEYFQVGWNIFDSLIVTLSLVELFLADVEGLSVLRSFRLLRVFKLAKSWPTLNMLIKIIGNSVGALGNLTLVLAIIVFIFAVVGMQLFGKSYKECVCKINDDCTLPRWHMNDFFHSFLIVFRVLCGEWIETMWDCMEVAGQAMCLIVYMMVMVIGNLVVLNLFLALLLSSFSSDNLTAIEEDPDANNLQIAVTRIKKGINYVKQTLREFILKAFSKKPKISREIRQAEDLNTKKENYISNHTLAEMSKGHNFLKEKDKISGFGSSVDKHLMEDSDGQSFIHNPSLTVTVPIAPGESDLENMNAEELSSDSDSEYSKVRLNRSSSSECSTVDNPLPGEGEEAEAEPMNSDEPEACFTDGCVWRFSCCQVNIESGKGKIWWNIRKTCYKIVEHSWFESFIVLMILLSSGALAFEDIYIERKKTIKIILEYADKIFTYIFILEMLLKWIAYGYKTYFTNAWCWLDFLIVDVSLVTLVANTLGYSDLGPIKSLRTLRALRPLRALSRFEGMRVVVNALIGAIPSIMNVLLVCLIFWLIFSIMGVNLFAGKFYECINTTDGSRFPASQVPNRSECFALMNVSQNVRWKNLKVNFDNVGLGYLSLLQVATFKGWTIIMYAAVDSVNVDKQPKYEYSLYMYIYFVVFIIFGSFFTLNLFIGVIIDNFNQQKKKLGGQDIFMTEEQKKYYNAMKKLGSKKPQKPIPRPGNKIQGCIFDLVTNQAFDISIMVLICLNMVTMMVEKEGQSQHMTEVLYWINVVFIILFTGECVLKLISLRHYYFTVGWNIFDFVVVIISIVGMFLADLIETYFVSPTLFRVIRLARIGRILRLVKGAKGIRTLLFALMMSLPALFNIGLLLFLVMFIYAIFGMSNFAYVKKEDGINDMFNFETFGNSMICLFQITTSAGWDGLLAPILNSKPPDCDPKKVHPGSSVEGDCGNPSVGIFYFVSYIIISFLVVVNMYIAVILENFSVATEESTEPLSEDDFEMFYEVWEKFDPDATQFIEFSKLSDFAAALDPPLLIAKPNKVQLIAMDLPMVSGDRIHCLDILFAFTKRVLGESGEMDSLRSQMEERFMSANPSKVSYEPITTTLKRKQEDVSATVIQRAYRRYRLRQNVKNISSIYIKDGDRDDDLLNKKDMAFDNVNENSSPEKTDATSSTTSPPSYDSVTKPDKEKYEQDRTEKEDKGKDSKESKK

Row | IC50 | Structure (SMILES)
1 | 2.03 µM | Cc1cccc(-c2ccc(F)cc2)c1Oc1ccc(S(=O)(=O)Nc2ncns2)cc1C#N [Example 39, 3-cyano-4-[(4′-fluoro-3-methylbiphenyl-2-yl)oxy]-N-1,2,4-thiadiazol-5-ylbenzenesulfonamide]
2 | 5.74 µM | Cc1cccc(-c2ccc(OC(F)(F)F)cc2)c1Oc1ccc(S(=O)(=O)Nc2ncns2)cc1C#N [Example 40, 3-cyano-4-{[3-methyl-4′-(trifluoromethoxy)biphenyl-2-yl]oxy}-N-1,2,4-thiadiazol-5-ylbenzenesulfonamide]
3 | 10.9 µM | COc1ccc(-c2cccc(C)c2Oc2ccc(S(=O)(=O)Nc3ncns3)cc2C#N)cc1F [Example 41, 3-cyano-4-[(3′-fluoro-4′-methoxy-3-methylbiphenyl-2-yl)oxy]-N-1,2,4-thiadiazol-5-ylbenzenesulfonamide]
4 | 1.73 µM | COc1ccc(-c2cccc(C)c2Oc2ccc(S(=O)(=O)Nc3ncns3)cc2C#N)cc1 [Example 42, 3-cyano-4-[(4′-methoxy-3-methylbiphenyl-2-yl)oxy]-N-1,2,4-thiadiazol-5-ylbenzenesulfonamide]
5 | 21.7 µM | Cc1cccc(-c2ccccc2F)c1Oc1ccc(S(=O)(=O)Nc2ncns2)cc1C#N [Example 43, 3-cyano-4-[(2′-fluoro-3-methylbiphenyl-2-yl)oxy]-N-1,2,4-thiadiazol-5-ylbenzenesulfonamide]
6 | 5.93 µM | Cc1cccc(-c2ccc(F)c(F)c2)c1Oc1ccc(S(=O)(=O)Nc2ncns2)cc1C#N [Example 44, 3-cyano-4-[(3′,4′-difluoro-3-methylbiphenyl-2-yl)oxy]-N-1,2,4-thiadiazol-5-ylbenzenesulfonamide]
7 | 30.44 µM | Cc1cccc(-c2cc(F)cc(F)c2)c1Oc1ccc(S(=O)(=O)Nc2ncns2)cc1C#N [Example 45, 3-cyano-4-[(3′,5′-difluoro-3-methylbiphenyl-2-yl)oxy]-N-1,2,4-thiadiazol-5-ylbenzenesulfonamide]
8 | 0.21 µM | N#Cc1cc(S(=O)(=O)Nc2ncns2)ccc1Oc1ccc(F)cc1-c1ccc(F)cc1F [Example 46, 3-cyano-N-1,2,4-thiadiazol-5-yl-4-[(2′,4′,5-trifluorobiphenyl-2-yl)oxy]benzenesulfonamide]
9 | 0.9 µM | COc1ccc(-c2ccccc2Oc2ccc(S(=O)(=O)Nc3ncns3)cc2C#N)cc1F [Example 48, 3-cyano-4-[(3′-fluoro-4′-methoxybiphenyl-2-yl)oxy]-N-1,2,4-thiadiazol-5-ylbenzenesulfonamide]
10 | 0.16 µM | N#Cc1cc(S(=O)(=O)Nc2ncns2)ccc1Oc1ccccc1-c1ccc(F)cc1 [Example 49, 3-cyano-4-[(4′-fluorobiphenyl-2-yl)oxy]-N-1,2,4-thiadiazol-5-ylbenzenesulfonamide]
11 | 0.84 µM | N#Cc1cc(S(=O)(=O)Nc2ncns2)ccc1Oc1ccccc1-c1ccccc1F [Example 50, 3-cyano-4-[(2′-fluorobiphenyl-2-yl)oxy]-N-1,2,4-thiadiazol-5-ylbenzenesulfonamide]
12 | 0.33 µM | COc1ccc(-c2ccccc2Oc2ccc(S(=O)(=O)Nc3ncns3)cc2C#N)cc1 [Example 51, 3-cyano-4-[(4′-methoxybiphenyl-2-yl)oxy]-N-1,2,4-thiadiazol-5-ylbenzenesulfonamide]
13 | 0.36 µM | N#Cc1cc(S(=O)(=O)Nc2ncns2)ccc1Oc1ccccc1-c1ccc(F)c(F)c1 [Example 52, 3-cyano-4-[(3′,4′-difluorobiphenyl-2-yl)oxy]-N-1,2,4-thiadiazol-5-ylbenzenesulfonamide]
14 | 3.54 µM | N#Cc1cc(S(=O)(=O)Nc2ncns2)ccc1Oc1ccccc1-c1cc(F)cc(F)c1 [Example 53, 3-cyano-4-[(3′,5′-difluorobiphenyl-2-yl)oxy]-N-1,2,4-thiadiazol-5-ylbenzenesulfonamide]
15 | 0.26 µM | CC(C)Oc1ccc(-c2ccccc2Oc2ccc(S(=O)(=O)Nc3ncns3)cc2C#N)cc1 [Example 54, 3-cyano-4-[(4′-isopropoxybiphenyl-2-yl)oxy]-N-1,2,4-thiadiazol-5-ylbenzenesulfonamide]
16 | 0.92 µM | N#Cc1cc(S(=O)(=O)Nc2ncns2)ccc1Oc1ccccc1-c1cccc(OC(F)(F)F)c1 [Example 55, 3-cyano-N-1,2,4-thiadiazol-5-yl-4-{[3′-(trifluoromethoxy)biphenyl-2-yl]oxy}benzenesulfonamide]
17 | 0.38 µM | N#Cc1cc(S(=O)(=O)Nc2ncns2)ccc1Oc1ccccc1-c1ccc(F)cc1F [Example 56, 3-cyano-4-[(2′,4′-difluorobiphenyl-2-yl)oxy]-N-1,2,4-thiadiazol-5-ylbenzenesulfonamide]
18 | 0.66 µM | N#Cc1cc(S(=O)(=O)Nc2ncns2)ccc1Oc1ccccc1-c1ccc(OC(F)(F)F)cc1 [Example 57, 3-cyano-N-1,2,4-thiadiazol-5-yl-4-{[4′-(trifluoromethoxy)biphenyl-2-yl]oxy}benzenesulfonamide]
19 | 0.34 µM | N#Cc1cc(S(=O)(=O)Nc2ncns2)ccc1Oc1cc(C(F)(F)F)nn1-c1ccc(F)cc1F [Example 58, 3-cyano-4-{[1-(2,4-difluorophenyl)-3-(trifluoromethyl)-1H-pyrazol-5-yl]oxy}-N-1,2,4-thiadiazol-5-ylbenzenesulfonamide]

Row | IC50 | Structure (SMILES)
20 | 2.28 µM | N#Cc1cc(S(=O)(=O)Nc2ncns2)ccc1Oc1cc(C(F)(F)F)nn1-c1ccc(F)c(F)c1 [Example 59, 3-cyano-4-{[1-(3,4-difluorophenyl)-3-(trifluoromethyl)-1H-pyrazol-5-yl]oxy}-N-1,2,4-thiadiazol-5-ylbenzenesulfonamide]
21 | 2.79 µM | N#Cc1cc(S(=O)(=O)Nc2ncns2)ccc1Oc1ccc(CC2CC2)cc1 [Example 60, 3-cyano-4-[4-(cyclopropylmethyl)phenoxy]-N-1,2,4-thiadiazol-5-ylbenzenesulfonamide]
22 | 25.7 µM | N#Cc1cc(S(=O)(=O)Nc2ncns2)ccc1Oc1ccc(CN2CCC2)cc1F [Example 61, 4-[4-(azetidin-1-ylmethyl)-2-fluorophenoxy]-3-cyano-N-1,2,4-thiadiazol-5-ylbenzenesulfonamide]
23 | 3.98 µM | Cc1n[nH]c(C)c1-c1ccccc1Oc1ccc(S(=O)(=O)Nc2ncns2)cc1C#N [Example 62, 3-cyano-4-[2-(3,5-dimethyl-1H-pyrazol-4-yl)phenoxy]-N-1,2,4-thiadiazol-5-ylbenzenesulfonamide]
24 | 2.35 µM | N#Cc1cc(S(=O)(=O)Nc2ncns2)ccc1Oc1ccccc1Oc1ccncc1 [Example 63, 3-cyano-4-[2-(pyridin-4-yloxy)phenoxy]-N-1,2,4-thiadiazol-5-ylbenzenesulfonamide]
25 | 0.78 µM | Cn1cc(-c2ccc(Cl)cc2)c(Oc2ccc(S(=O)(=O)Nc3ncns3)cc2C#N)n1 [Example 64, 4-{[4-(4-chlorophenyl)-1-methyl-1H-pyrazol-3-yl]oxy}-3-cyano-N-1,2,4-thiadiazol-5-ylbenzenesulfonamide]
26 | 12.2 µM | COc1ccc(-n2cc(Oc3ccc(S(=O)(=O)Nc4ncns4)cc3C#N)c(C(C)C)n2)cc1 [Example 65, 3-cyano-4-{[3-isopropyl-1-(4-methoxyphenyl)-1H-pyrazol-4-yl]oxy}-N-1,2,4-thiadiazol-5-ylbenzenesulfonamide]
27 | 2.66 µM | Cc1cn(Cc2ccccc2)nc1Oc1ccc(S(=O)(=O)Nc2ncns2)cc1C#N [Example 66, 4-[(1-benzyl-4-methyl-1H-pyrazol-3-yl)oxy]-3-cyano-N-1,2,4-thiadiazol-5-ylbenzenesulfonamide]
28 | 4.22 µM | CC(C)c1nn(-c2ccccc2Cl)cc1Oc1ccc(S(=O)(=O)Nc2ncns2)cc1C#N [Example 67, 4-{[1-(2-chlorophenyl)-3-isopropyl-1H-pyrazol-4-yl]oxy}-3-cyano-N-1,2,4-thiadiazol-5-ylbenzenesulfonamide]
29 | 0.77 µM | N#Cc1cc(S(=O)(=O)Nc2ncns2)ccc1Oc1ccccc1Oc1ccccc1 [Example 68, 3-cyano-4-(2-phenoxyphenoxy)-N-1,2,4-thiadiazol-5-ylbenzenesulfonamide]
30 | 36.1 µM | CN1C(=O)CCC1c1ccccc1Oc1ccc(S(=O)(=O)Nc2ncns2)cc1C#N (centres unmarked) [Example 69, 3-cyano-4-[2-(1-methyl-5-oxopyrrolidin-2-yl)phenoxy]-N-1,2,4-thiadiazol-5-ylbenzenesulfonamide]
31 | 0.11 µM | Cn1nccc1-c1ccccc1Oc1ccc(S(=O)(=O)Nc2ncns2)cc1C#N [Example 70, 3-cyano-4-[2-(1-methyl-1H-pyrazol-5-yl)phenoxy]-N-1,2,4-thiadiazol-5-ylbenzenesulfonamide]
32 | 12.5 µM | Cn1nccc1-c1cc(Cl)cc(Cl)c1Oc1ccc(S(=O)(=O)Nc2ncns2)cc1C#N [Example 71, 3-cyano-4-[2,4-dichloro-6-(1-methyl-1H-pyrazol-5-yl)phenoxy]-N-1,2,4-thiadiazol-5-ylbenzenesulfonamide]
33 | >0.3 µM | CCn1nc(C)c(-c2ccccc2Oc2ccc(S(=O)(=O)Nc3ncns3)cc2C#N)c1C [Example 72, 3-cyano-4-[2-(1-ethyl-3,5-dimethyl-1H-pyrazol-4-yl)phenoxy]-N-1,2,4-thiadiazol-5-ylbenzenesulfonamide]
34 | 23.4 µM | Cn1nccc1-c1cc(F)cc(F)c1Oc1ccc(S(=O)(=O)Nc2ncns2)cc1C#N [Example 73, 3-cyano-4-[2,4-difluoro-6-(1-methyl-1H-pyrazol-5-yl)phenoxy]-N-1,2,4-thiadiazol-5-ylbenzenesulfonamide]
35 | 1.11 µM | N#Cc1cc(S(=O)(=O)Nc2ncns2)ccc1Oc1cc(F)ccc1Oc1ccccc1 [Example 74, 3-cyano-4-(5-fluoro-2-phenoxyphenoxy)-N-1,2,4-thiadiazol-5-ylbenzenesulfonamide]
36 | 3.34 µM | COc1cc(C)ccc1Oc1cccc(F)c1Oc1ccc(S(=O)(=O)Nc2ncns2)cc1C#N [Example 75, 3-cyano-4-[2-fluoro-6-(2-methoxy-4-methylphenoxy)phenoxy]-N-1,2,4-thiadiazol-5-ylbenzenesulfonamide]
37 | >10 µM | N#Cc1cc(S(=O)(=O)Nc2ncns2)ccc1Oc1ccccc1Oc1ccccc1C(N)=O [Example 76, 2-(2-{2-cyano-4-[(1,2,4-thiadiazol-5-yl-amino)sulfonyl]phenoxy}phenoxy)benzamide]
38 | 0.36 µM | N#Cc1cc(S(=O)(=O)Nc2ncns2)ccc1Oc1ccccc1Oc1ccc(F)cc1 [Example 77, 3-cyano-4-[2-(4-fluorophenoxy)phenoxy]-N-1,2,4-thiadiazol-5-ylbenzenesulfonamide]
